Experimental data: publication PMC7862291, “Full-length in meso structure and mechanism of rat kynurenine 3-monooxygenase inhibition” (Communications Biology, 2021)
Where two headings read alike, the source gives them in different places.

Key:
[1] = Pharmacokinetic (brain penetration) study in rats; assay type: in vivo; settings: Sprague-Dawley Crl:CD(SD), rat, male SD rats, 10 mg/kg ip, 1 h after a single administration
Protocol: Brain penetration studies were conducted in non-fasted male SD rats [Sprague-Dawley rats Crl:CD(SD), 8 weeks of age]. Compound 1 was intraperitoneally (ip) administered at 10 mg/kg in a solution of saline containing 10% dimethylformamide, 10% propylene glycol, and 4% 1 normality (N) sodium hydrate. […] Blood and brain were collected at 1 h after a single administration. The test compound in plasma samples or brain samples was extracted by deproteination with acetonitrile, and then analysed using LC-MS/MS.

hKMO = target: T1, hKMO (Homo sapiens, UniProt O15229); assay: Surface plasmon resonance; assay type: binding; settings: SPR, immobilised hKMO, single-cycle kinetics
T1 construct: purchased Origene
Protocol: Surface plasmon resonance experiments were performed using a Biacore 8K+ (GE Healthcare) instrument. A 20-μg/mL concentration of hKMO (Origene) was immobilised on a Series S Sensor Chip CM5 (GE Healthcare) by NHS/EDC amine coupling. The Rmax was 13,500 resonance units (RU) upon binding.
Five-fold serial dilutions of 50 nM compound 3 finalised in 2% DMSO were made, and run in a buffer containing HBS-P+ (GE Healthcare), 1 mM DTT, and 2% DMSO using single-cycle kinetics.
Surface plasmon resonance data were analysed using Biacore Insight Evaluation software. All fits used a simple 1:1 Langmuir binding model showing reasonable fit and low fit χ^2 values.

T1 sequence (O15229 whole entry): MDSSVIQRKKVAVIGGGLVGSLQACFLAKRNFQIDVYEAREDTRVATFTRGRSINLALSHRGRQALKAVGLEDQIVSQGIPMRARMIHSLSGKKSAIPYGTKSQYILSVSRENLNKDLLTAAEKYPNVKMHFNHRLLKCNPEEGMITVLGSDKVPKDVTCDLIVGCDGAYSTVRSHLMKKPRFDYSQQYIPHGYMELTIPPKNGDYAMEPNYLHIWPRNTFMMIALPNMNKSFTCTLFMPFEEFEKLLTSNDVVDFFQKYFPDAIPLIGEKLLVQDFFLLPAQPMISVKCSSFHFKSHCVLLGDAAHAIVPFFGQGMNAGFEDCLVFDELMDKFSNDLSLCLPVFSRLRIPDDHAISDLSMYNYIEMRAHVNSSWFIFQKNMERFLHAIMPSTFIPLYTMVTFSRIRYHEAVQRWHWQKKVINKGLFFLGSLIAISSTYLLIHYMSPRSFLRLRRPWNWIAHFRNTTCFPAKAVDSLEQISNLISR

| Kp at 1 h ([1]; brain/plasma) | concentration at 1 h ([1]; brain, read-out: Exposure in brain) [ng/g] | concentration at 1 h ([1]; plasma, read-out: Exposure in plasma) [ng/mL] | Kd (hKMO) [nM] | koff (hKMO) [s⁻¹] | kon (hKMO) [M⁻¹ s⁻¹] | Structure (SMILES) |
| --- | --- | --- | --- | --- | --- | --- |
| 0.029 | 25.4 | 869 | – | – | – | Cc1cnn(-c2cccc(C(=O)O)c2)c1-c1ccccc1 [Compound 1] |
| – | – | – | 0.039 | 2.1e-05 | 540000 | Cc1cnn(-c2ccc(OCc3ccccc3)c(C(=O)O)c2)c1-c1ccc(Cl)c(F)c1 [Compound 3] |
